One assay deals with T1, EphA8 (Homo sapiens, UniProt P29322).
T1 sequence (P29322 28-1005): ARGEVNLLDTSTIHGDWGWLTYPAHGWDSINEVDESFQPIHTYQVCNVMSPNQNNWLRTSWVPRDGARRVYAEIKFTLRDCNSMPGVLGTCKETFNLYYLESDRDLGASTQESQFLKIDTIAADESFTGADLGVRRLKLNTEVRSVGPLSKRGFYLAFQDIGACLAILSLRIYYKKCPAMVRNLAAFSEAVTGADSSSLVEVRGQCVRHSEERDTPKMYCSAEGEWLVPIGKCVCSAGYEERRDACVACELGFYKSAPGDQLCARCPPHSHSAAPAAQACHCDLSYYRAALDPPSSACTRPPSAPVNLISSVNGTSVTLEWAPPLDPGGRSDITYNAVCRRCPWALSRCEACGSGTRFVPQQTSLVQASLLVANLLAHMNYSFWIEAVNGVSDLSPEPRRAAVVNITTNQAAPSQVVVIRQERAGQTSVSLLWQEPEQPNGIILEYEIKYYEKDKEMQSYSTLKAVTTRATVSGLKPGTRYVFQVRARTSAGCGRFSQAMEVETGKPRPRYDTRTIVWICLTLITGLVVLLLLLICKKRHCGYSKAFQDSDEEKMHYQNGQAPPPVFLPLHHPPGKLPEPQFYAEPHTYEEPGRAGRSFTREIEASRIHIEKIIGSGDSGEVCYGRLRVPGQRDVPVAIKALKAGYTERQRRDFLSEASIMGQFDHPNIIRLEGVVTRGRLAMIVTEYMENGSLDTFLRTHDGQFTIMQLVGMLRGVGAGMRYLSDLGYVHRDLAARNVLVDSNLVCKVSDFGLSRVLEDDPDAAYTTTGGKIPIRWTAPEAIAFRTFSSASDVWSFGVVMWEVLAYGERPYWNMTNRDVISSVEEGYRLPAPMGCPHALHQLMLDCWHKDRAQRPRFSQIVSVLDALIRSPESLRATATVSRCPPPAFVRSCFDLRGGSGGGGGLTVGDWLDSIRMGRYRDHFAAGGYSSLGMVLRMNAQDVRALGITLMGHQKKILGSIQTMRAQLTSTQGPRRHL
Briefly: EphA8 Kinase Activity Assay. It is filed as biochemical. Particulars: read-out: EphA8, % INH, at 30 uM. How it is done: Nunc Maxisorb plates are coated with streptavidin by overnight incubation with 100 μL per well of 1 μg/ml Streptavidin in DPBS. Prior to the start of the experiment, the plates are washed with TBST (3×200 μL) and blocked for at least 1 hour by adding 150 μL of 5% BSA/TBST. The plates are washed with TBST (3×200 μL/well) and left dry immediately before the capture step.
The test articles and control (Staurosporine) are prepared using the following assay buffer @ 3× desired final concentration (50 mM Tris-HCl, 0.02 mg/ml BSA, 10 mM MgCl2, 0.1 mM Na3VO4, 1 mM EGTA, 12.5 μM ATP, 0.01% NP-40, 1 mM DTT in 10% glycerol/water). In a reaction plate are added rapidly 20 μl test article (or control) and 20 μl EphA8 (0.12 ng/μl final concentration). The plate is incubated for 15 minutes. To the reaction plate is added 20 μl of Pyk-2 (0.75 ng/μl final concentration). The plate is incubated at room temperature for one hour. From the reaction plate, 50 μl is transferred to the streptavidin coated plate. The capture plate is incubated at room temperature for 30 minutes, then washed 6× with TBST. To the capture plate is added 100 μL/well of Cell Signaling anti-phospho tyrosine at a dilution of 1:3000 in 2% BSA/TBST. The plate is incubated for one hour at room temperature then washed 6× with TBST. To the capture plate is added 100 μL/well of Alkaline Phosphatase Tagged Goat anti Mouse Antibody at a dilution of 1:4000 in 2% BSA/TBST. The plate is incubated for one hour at room temperature then washed 6× with TBST. The fluorescent readout is initiated by the addition of 100 μl/well of Attophos reagent (6 mg/10 mL). The reading is done on the Perkin Elmer Envision system.

For another assay, the target named is RET kinase (Homo sapiens, UniProt P07949). Briefly: RET Kinase Activity Assay. The class given is biochemical. Particulars: read-out: Ret, % INH, at 30 uM. How it is done: The disclosed compounds were assayed for their ability to inhibit the activity of RET kinase. Nunc Maxwasorb plates were coated with streptavidin by overnight incubation with 100 μL per well of 1 μg/mL Streptavidin in DPBS. Prior to the start of the experiment, the plates were washed with TBST (3×200 μL) and blocked for at least 1 hour by adding 150 μL of 5% BSA/TBST. The plates were washed with TBST (3×200 […]) and left dry immediately before the capture step.
The test articles and controls (Staurosporine and Sutent) were prepared using the following assay buffer @ 3× desired final concentration (50 mM […], 0.02 mg/mL BSA, 10 mM MgCl2, 0.1 mM Na3VO4, 1 mM EGTA, 75 μM ATP0.01% NP-40, 2 mM DTT in 10% glycerol/water). In a reaction plate, were added rapidly 20 μL test article (or control) and 20 μL RET (0.25 ng/4 final concentration). The plate was incubated for 15 minutes. To the reaction plate was added 20 μL of Pyk-2 (0.25 ng/4 final concentration). The plate was incubated at room temperature for one hour.
From the reaction plate, 50 μL was transferred to the streptavidin coated plate. The capture plate was incubated at room temperature for 30 minutes then washed 6× with TBST. To the capture plate was added 100 μL/well of Cell Signaling anti-phospho tyrosine at a dilution of 1:3000 in 2% BSA/TBST. The plate was incubated for one hour at room temperature then washed 6× with TBST. To the capture plate was added 100 μL/well of Alkaline Phosphatase Tagged Goat anti Mouse Antibody at a dilution of 1:4000 in 2% BSA/TBST. The plate was incubated for one hour at room temperature then washed 6× with TBST. The fluorescent readout was initiated by the addition of 100 μL/well of Attophos reagent (6 mg/10 mL). The reading was done on the Perkin Elmer Envision system.

Sequence of RET kinase (P07949 29-1114): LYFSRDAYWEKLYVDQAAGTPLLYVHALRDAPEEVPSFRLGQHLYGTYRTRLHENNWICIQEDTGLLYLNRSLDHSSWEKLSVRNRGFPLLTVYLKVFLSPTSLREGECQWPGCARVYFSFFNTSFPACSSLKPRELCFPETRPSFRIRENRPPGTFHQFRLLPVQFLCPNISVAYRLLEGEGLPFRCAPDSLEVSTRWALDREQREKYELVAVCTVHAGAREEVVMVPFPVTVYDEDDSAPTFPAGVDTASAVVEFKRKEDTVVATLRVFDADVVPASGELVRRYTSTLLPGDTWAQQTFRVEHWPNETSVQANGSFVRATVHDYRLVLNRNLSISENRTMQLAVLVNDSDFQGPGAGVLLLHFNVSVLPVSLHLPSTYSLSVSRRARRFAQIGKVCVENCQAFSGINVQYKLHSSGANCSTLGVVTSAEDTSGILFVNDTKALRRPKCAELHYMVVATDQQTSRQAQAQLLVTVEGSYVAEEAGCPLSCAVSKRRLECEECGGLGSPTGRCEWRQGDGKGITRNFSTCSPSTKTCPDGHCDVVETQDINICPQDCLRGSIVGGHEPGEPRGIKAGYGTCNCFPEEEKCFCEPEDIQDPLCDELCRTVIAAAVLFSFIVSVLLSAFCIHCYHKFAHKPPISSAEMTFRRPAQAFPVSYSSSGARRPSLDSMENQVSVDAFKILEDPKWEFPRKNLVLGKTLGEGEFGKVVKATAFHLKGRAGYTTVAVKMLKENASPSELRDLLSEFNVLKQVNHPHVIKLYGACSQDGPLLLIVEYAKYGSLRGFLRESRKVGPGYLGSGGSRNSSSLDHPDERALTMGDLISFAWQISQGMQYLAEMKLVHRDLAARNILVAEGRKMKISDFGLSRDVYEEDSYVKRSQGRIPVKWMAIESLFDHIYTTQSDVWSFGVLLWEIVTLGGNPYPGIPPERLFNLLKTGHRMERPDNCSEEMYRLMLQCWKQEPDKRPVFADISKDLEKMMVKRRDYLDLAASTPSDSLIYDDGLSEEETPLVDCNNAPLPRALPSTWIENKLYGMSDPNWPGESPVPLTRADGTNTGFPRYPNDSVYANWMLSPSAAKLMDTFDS

For `COc1cccc(CN2CCN(c3nc(N)nc4[nH]ncc34)Cc3ccccc32)c1` [Compound 1, 4-[1-(3-methoxybenzyl)-1,2,3,5-tetrahydro-4H-1,4-benzodiazepin-4-yl]-1H-pyrazolo[3,4-d]pyrimidin-6-amine], the inhibition at 30 µM at EphA8 and on RET kinase was 50 to 79% each time.

Take `COc1cccc(CN2CCN(c3nc(N)nc4[nH]cnc34)Cc3ccccc32)c1` [Compound 2, 6-[1-(3-methoxybenzyl)-1,2,3,5-tetrahydro-4H-1,4-benzodiazepin-4-yl]-9H-purin-2-amine]: the inhibition at 30 µM on EphA8 is below 50%; on RET kinase, 50 to 79%.

On to `CC(C)c1ccc(CN2CCN(c3nc(N)nc4[nH]cnc34)Cc3ccccc32)cc1` [Compound 3, 6-[1-(4-isopropylbenzyl)-1,2,3,5-tetrahydro-4H-1,4-benzodiazepin-4-yl]-9H-purin-2-amine], for which the inhibition at 30 µM at EphA8 and at RET kinase was below 50% throughout.

Take `CC(C)c1ccc(CN2CCN(c3nc(N)nc4[nH]ncc34)Cc3ccccc32)cc1` [Compound 4, 4-[1-(4-isopropylbenzyl)-1,2,3,5-tetrahydro-4H-1,4-benzodiazepin-4-yl]-1H-pyrazolo[3,4-d]pyrimidin-6-amine]: the inhibition at 30 µM on EphA8 and on RET kinase was below 50% throughout.

Take `Nc1nc(N2CCN(Cc3cccc(F)c3)c3ccccc3C2)c2cn[nH]c2n1` [Compound 6, 4-[1-(3-fluorobenzyl)-1,2,3,5-tetrahydro-4H-1,4-benzodiazepin-4-yl]-1H-pyrazolo[3,4-d]pyrimidin-6-amine]: the inhibition at 30 µM on EphA8 and on RET kinase was 50 to 79% in each case.

As to `Nc1nc(N2CCN(CCCc3cccc(Cl)c3)c3ccccc3C2)c2nc[nH]c2n1` [Compound 7, 6-{1-[3-(3-chlorophenyl)propyl]-1,2,3,5-tetrahydro-4H-1,4-benzodiazepin-4-yl}-9H-purin-2-amine], the inhibition at 30 µM at EphA8 and at RET kinase was below 50% throughout.

For the compound `Nc1nc(N2CCN(CCCc3cccc(Cl)c3)c3ccccc3C2)c2cn[nH]c2n1` [Compound 8, 4-{1-[3-(3-chlorophenyl)propyl]-1,2,3,5-tetrahydro-4H-1,4-benzodiazepin-4-yl}-1H-pyrazolo[3,4-d]pyrimidin-6-amine], the inhibition at 30 µM at EphA8 and at RET kinase was below 50% in each case.

In the case of `COc1ccccc1CN1CCN(c2nc(N)nc3[nH]cnc23)Cc2ccccc21` [Compound 9, 6-[1-(2-methoxybenzyl)-1,2,3,5-tetrahydro-4H-1,4-benzodiazepin-4-yl]-9H-purin-2-amine], the inhibition at 30 µM is below 50% at EphA8 and 50 to 79% on RET kinase.

For `COc1ccccc1CN1CCN(c2nc(N)nc3[nH]ncc23)Cc2ccccc21` [Compound 10, 4-[1-(2-methoxybenzyl)-1,2,3,5-tetrahydro-4H-1,4-benzodiazepin-4-yl]-1H-pyrazolo[3,4-d]pyrimidin-6-amine], the inhibition at 30 µM at EphA8 and at RET kinase was below 50% throughout.

For the compound `Cc1ccccc1CN1CCN(c2nc(N)nc3[nH]cnc23)Cc2ccccc21` [Compound 11, 6-[1-(2-methylbenzyl)-1,2,3,5-tetrahydro-4H-1,4-benzodiazepin-4-yl]-9H-purin-2-amine], the inhibition at 30 µM was below 50% on EphA8 and 50 to 79% on RET kinase.

With `Cc1ccccc1CN1CCN(c2nc(N)nc3[nH]ncc23)Cc2ccccc21` [Compound 12, 4-[1-(2-methylbenzyl)-1,2,3,5-tetrahydro-4H-1,4-benzodiazepin-4-yl]-1H-pyrazolo[3,4-d]pyrimidin-6-amine], the inhibition at 30 µM at EphA8 and on RET kinase was below 50% in each case.

For `Nc1nc(N2CCN(Cc3ccccc3Cl)c3ccccc3C2)c2nc[nH]c2n1` [Compound 13, 6-[1-(2-chlorobenzyl)-1,2,3,5-tetrahydro-4H-1,4-benzodiazepin-4-yl]-9H-purin-2-amine], the inhibition at 30 µM on EphA8 and at RET kinase was below 50% in each case.

Take `Nc1nc(N2CCN(Cc3ccccc3Cl)c3ccccc3C2)c2cn[nH]c2n1` [Compound 14, 4-[1-(2-chlorobenzyl)-1,2,3,5-tetrahydro-4H-1,4-benzodiazepin-4-yl]-1H-pyrazolo[3,4-d]pyrimidin-6-amine]: the inhibition at 30 µM at EphA8 and on RET kinase was below 50% each time.

Regarding `Nc1nc(N2CCN(Cc3ccc(F)cc3)c3ccccc3C2)c2nc[nH]c2n1` [Compound 15, 6-[1-(4-fluorobenzyl)-1,2,3,5-tetrahydro-4H-1,4-benzodiazepin-4-yl]-9H-purin-2-amine], the inhibition at 30 µM on EphA8 is below 50%; on RET kinase, 50 to 79%.

As for `Nc1nc(N2CCN(Cc3ccc(F)cc3)c3ccccc3C2)c2cn[nH]c2n1` [Compound 16, 4-[1-(4-fluorobenzyl)-1,2,3,5-tetrahydro-4H-1,4-benzodiazepin-4-yl]-1H-pyrazolo[3,4-d]pyrimidin-6-amine], the figures for the inhibition at 30 µM at EphA8 and at RET kinase were 50 to 79% and below 50%, respectively.

As for `Nc1nc(N2CCN(Cc3cccc4ccccc34)c3ccccc3C2)c2nc[nH]c2n1` [Compound 17, 6-[1-(1-naphthylmethyl)-1,2,3,5-tetrahydro-4H-1,4-benzodiazepin-4-yl]-9H-purin-2-amine], the inhibition at 30 µM at EphA8 and on RET kinase was 50 to 79% each time.

Consider `Nc1nc(N2CCN(Cc3cccc(C(F)(F)F)c3)c3ccccc3C2)c2nc[nH]c2n1` [Compound 20, 6-{1-[3-(trifluoromethyl)benzyl]-1,2,3,5-tetrahydro-4H-1,4-benzodiazepin-4-yl}-9H-purin-2-amine], for which the inhibition at 30 µM at EphA8 is 50 to 79%; on RET kinase, below 50%.

Consider `Nc1nc(N2CCN(Cc3cccc(C(F)(F)F)c3)c3ccccc3C2)c2cn[nH]c2n1` [Compound 21, 4-{1-[3-(trifluoromethyl)benzyl]-1,2,3,5-tetrahydro-4H-1,4-benzodiazepin-4-yl}-1H-pyrazolo[3,4-d]pyrimidin-6-amine], for which the inhibition at 30 µM at EphA8 and on RET kinase was below 50% in each case.

The values are drawn from patent US8343961B2, “Substituted heterocyclic compounds” (ArQule, Inc., priority 2009, dated 2013).
